In patent EP0906100B1, “USE OF 5-HT 1A? RECEPTOR ANTAGONISTS FOR THE TREATMENT OF URINARY INCONTINENCE” (RECORDATI S.A., priority 1996, dated 1997):

Legend:
[1] = biological target: α1-adrenergic receptor; experiment: [3H]prazosin binding (α1-receptors), rat cerebral cortices; details: 0.35 nM [3H]prazosin, read-out: Binding affinity for the α1-adrenergic receptor, Ki
Protocol: [^3H]prazosin binding (α1-receptors):
Rat cerebral cortices were homogenized in 50 volumes of ice-cold 50 mM Tris-HCl pH 7.4. The homogenates were centrifuged at 48,000 x g for 10 minutes, and the pellets were resuspended in the same volume of ice-cold buffer, centrifuged, and resuspended two more times. The final pellets were resuspended in 100 volumes of 50 mM Tris-HCl, pH 7.4, containing 0.1 % ascorbic acid and 10 µM pargyline. […] Non-specific binding was determined in the presence of 10 µM phentolamine. The incubations were terminated by rapid filtration through Whatman GF/B filters using a Brandel cell harvester, after which the filters were washed with 3x3 ml of ice-cold buffer. The radioactivity retained on the filters was determined by liquid scintillation counting.

[2] = test system: rhythmic bladder voiding contractions; experiment: Volume-induced rhythmic bladder voiding contractions in anaesthetized rats; assay type: in vivo; details: for AMPLITUDE mm Hg before treatment / FREQUENCY No. contr./15 min before treatment: baseline; for AMPLITUDE mm Hg before treatment / AMPLITUDE mm Hg after treatment: animals with frequency reduction <50%; for AMPLITUDE mm Hg before treatment / FREQUENCY No. contr./15 min before treatment / AMPLITUDE mm Hg after treatment / FREQUENCY No. contr./15 min after treatment: mean±S.E.; for BLADDER CONTRACTIONS Disappearance time: duration of bladder quiescence, mean (S.E. in next cell)
Protocol: Female Sprague Dawley rats weighing 225-275 g (Crl: CD° BR, Charles River Italia) were used. The animals were housed with free access to food and water and were maintained on a forced 12 h alternating light-dark cycle at 22-24°C for at least one week, except during the experiment. The activity on the rhythmic bladder voiding contractions was evaluated according to the method of Dray (J. Pharmcol. Methods, 13:157, 1985), with some modifications as in Guarneri (Phannacol. Res., 27:173, 1993). […] The catheter was tied in place with a ligature around the external urethral orifice and was connected with conventional pressure transducers (Statham P23 ID/P23 XL). […] The bladder was then filled via the recording catheter by incremental volumes of warm (37°C) saline until reflex bladder voiding contractions occurred (usually 0.8-1.5 ml). Two parameters were recorded from the cystometrogram: the frequency of voiding contractions, calculated by counting the number of peaks/15 min of observation, and the mean amplitude of these contractions (mean height of the peaks in mmHg) in the same time period. For intravenous (i. v. ) injection of bioactive compounds, a PE 50 polyethylene tubing filled with physiological saline was inserted into the jugular vein.
Bioactivity was assessed in individual animals (using 6-10 rats per dose), by recording the number and height of the peaks for 15 min after drug injection and comparing them with those previously recorded for 15 min after the intravenous administration of vehicle alone. […] The statistical significance of changes in frequency and amplitude before and after treatment was assessed by Student's t test for paired data. Changes showing a probability P<0.01 were considered significant.
An all-or-none criterion was also used to compare bioactivity in terms of ED50 values. Rats showing a treatment-related change of ≥30% relative to the basal value were considered to be positive. Quantal dose-response curves and ED50 values were evaluated by the method of Bliss (J. Pharm. Pharmacol., 11:192, 1938).
The rapid distension of the urinary bladder in urethane-anaesthetized rats produced a series of rhythmic bladder voiding contractions whose characteristics have been described (Maggie et al., Brain Res., 380, 83, 1986; Maggi, et al., J. Pharmacol. Exp. Ther., 230, 500, 1984). The frequency of these contractions is related to the sensory afferent arm of reflex micturition and to the integrity of the micturition centre, while their amplitude is a property of the efferent arm of the reflex (Maggi et al., J. Pharmacol. Meth., 15, 157, 1986; Maggi et al., Brain Res.. 415, 1, 1987; Maggi et al., Naun. Schmied. Arch. Pharmacol., 332, 276, 1986; Maggi et al., J. Urol., 136, 696, 1986).

COc1ccccc1N1CCN(CCCCN2C(=O)c3ccccc3C2=O)CC1 [NAN-190, 1-(2-methoxyphenyl)-4-[4-(2-phthalimido)-butyl]-piperazine]
Ki [1]: 4.8 nM | AMPLITUDE mm Hg before treatment ([2]; 30 µg/kg i.v. group): 30.2±3.7 mm Hg | FREQUENCY No. contr./15 min before treatment ([2]; 30 µg/kg i.v. group): 13.5±1.2 No. contr./15 min | AMPLITUDE mm Hg after treatment ([2]; 30 µg/kg i.v.): 26.1±3.1 mm Hg | BLADDER CONTRACTIONS Disappearance time ([2]; 30 µg/kg i.v.): 1.80 min | FREQUENCY No. contr./15 min after treatment ([2]; 30 µg/kg i.v.): 11.8±1.5 No. contr./15 min | AMPLITUDE mm Hg before treatment ([2]; 100 µg/kg i.v. group): 22.5±1.7 mm Hg | FREQUENCY No. contr./15 min before treatment ([2]; 100 µg/kg i.v. group): 13.6±1.0 No. contr./15 min | AMPLITUDE mm Hg after treatment ([2]; 100 µg/kg i.v.): 17.3±2.9 mm Hg | BLADDER CONTRACTIONS Disappearance time ([2]; 100 µg/kg i.v.): 6.34 min | FREQUENCY No. contr./15 min after treatment ([2]; 100 µg/kg i.v.): 6.4±1.1 No. contr./15 min | AMPLITUDE mm Hg before treatment ([2]; 300 µg/kg i.v. group): 24.1±1.8 mm Hg | FREQUENCY No. contr./15 min before treatment ([2]; 300 µg/kg i.v. group): 11.8±1.1 No. contr./15 min | AMPLITUDE mm Hg after treatment ([2]; 300 µg/kg i.v.): 17.6±1.7 mm Hg | BLADDER CONTRACTIONS Disappearance time ([2]; 300 µg/kg i.v.): 5.47 min | FREQUENCY No. contr./15 min after treatment ([2]; 300 µg/kg i.v.): 6.6±1.1 No. contr./15 min | ED (10 min disappearance of contractions) ([2]; Rattus norvegicus, iv, 10 min, extrapolated dose inducing 10 min of disappearance of the contractions, linear regression): > 0.3 mg/kg | ED50 ([2]; Rattus norvegicus, iv, read-out: ED50 FREQUENCY (and 95% confidence limits), i.v., quantal criterion (change ≥30% relative to basal value)): 0.046 mg/kg
